The values below come from US9040713B2, “Methods of managing blood sugar levels and compositions related thereto” (EMORY UNIVERSITY, priority 2010, dated 2015).

Each structure is given as a SMILES string. “Also recorded” adds a separate entry of the source.

Test [1] addresses T1, GST-IRTK (Homo sapiens, UniProt P06213).
T1 construct: GST-tagged IRTK (GST-IRTK, a.a. 1011-1382); purchased Invitrogen
Briefly: IR in vitro kinase assay (histone H2B phosphorylation). In kind it is biochemical. Particulars: different concentrations of compound. As to the method:
Parental CHO cells were used as a negative control (bottom panel). The fluorescence-labeled cells were analyzed on flow cytometry. (B) DDN binds to IRTK. UV-visible spectra were scanned from 200 to 800 nm for IRTK fragment in the presence of DDN or its analogue. When DDN binds to IRTK, it elicits the absorption alteration at 560 and 602 nm. (C) DDN protects IRTK from proteolysis. GST-IRTK was subjected to limited trypsin digestion in the presence of DDN (50 μM), ATP-γ-S (5 μM) or both. The reaction mixture was resolved by SDS-PAGE, followed by silver staining (D) DDN increases IRTK activity in vitro.
Parental CHO cells were used as a negative control (Bottom panel). The fluorescence-labeled cells were analyzed on flow cytometry. (B) 4524-E7 protects IRTK from proteolysis. GST-IRTK was subjected to limited trypsin or chymotrypsin digestion in the presence of 4524-E7 (50 μM), ATPyS (5 μM) or both at 37° C. for 5 min. The reaction mixture was resolved by SDS-PAGE, followed by silver staining Cleaved fragments were asterisked. (C) 4524-E7 increases IRTK activity in vitro. Recombinant GST-IRTK, GST-IGFRTK, and GST-EGFRTK were incubated with different concentrations of 4524-E7 or 10 μM 2—NH2-NQ and the kinase activity was examined by monitoring the phosphorylation of histone H2B. (E) In vitro kinase activity of various IRTK/IGF-1R kinase hybrids. The GFP-tagged kinases were expressed in HEK293, immunoprecipitated and incubated with different concentrations of 4524-E7 as indicated. […] Expressions of the kinases were also verified (lower panel).
Recombinant GST-IRTK was incubate with 50 mM tris-HCl (pH7.4), 10 mM MgCl2, and 50 μM ATP with different concentration of compound for 15 min at 25° C. Histone H2B (0.35 μg/ml) and [γ32P]ATP (0.25 μCi/ul) were added and the samples were further incubated for 10 min. The sample was separated on a SDS-polyacrylamide gel and autoradiographed.

The subject of another test is C57BL/6J mice. Put plainly: Blood glucose level test in C57BL/6J mice. Particulars: 20 mg/kg oral, 12 h starved. Type of test: in vivo, mouse. The procedure:
(§1) (A) DDN reduces blood glucose in C57BL/6J mice. […] Blood glucose was monitored before and after dosing at various time points as indicated (*: P<0.05, **: P<0.01; ***: P<0.001, n=10-13, Two-way ANOVA vs vehicle). (B) DDN provokes IR phosphorylation and its downstream signaling in C57BL/6J mice. Three month-old C57BL/6J mice were starved for 12 h and then orally administrated with vehicle (0.5% methylcellulose), DDN (20 mg/kg) or 2NH2-NQ (20 mg/kg). Cell lysates were prepared from liver and muscle tissues collected at 3, 4, and 5 h after drug administration and analyzed by immunoprecipitation and immunoblotting. (C) DDN quickly activates IR phosphorylation and its downstream signaling. Three-month-old C57BL/6J mice were starved for 12 h and then injected with vehicle, 5 mg/kg DDN or 5 mg/kg 2NH2-NQ through vena cava. After 5 min, the liver was collected and analyzed by immunobloting using specific antibodies.
(§2) (A) 4524-E7 provokes IR phosphorylation in various tissues of mice. Three-month-old C57BL/6J mice were starved for 12 h and then dosed with vehicle (0.5% methylcellulose) or 4524-E7 (20 mg/kg). Cell lysates from liver, muscle, and WAT were prepared at 3, 4, and 5 h after drug administration and analyzed by immunoblotting. (B) Basal and insulin-stimulated hepatic glucose production rates were measured by hyperinsulinemic-euglycemic clamp. […] (C) Hypoglycemic effect of 4524-E7 in C57BL/6J mice. C57BL/6J mice were starved for 12 h and then orally administrated with vehicle (0.5% methylcellulose) or 4524-E7 (5 mg/kg). Blood glucose was monitored at different time points as indicated (n=8, *: P<0.05, two-way ANOVA). (D) Hypoglycemic effect in db/db mice. db/db mice were starved for 12 h and then orally injected with vehicle (0.5% methylcellulose) or 4524-E7 (5 mg/kg). Blood glucose was monitored at different time points as indicated (n=5, *: P<0.05, two-way ANOVA). (E) Glucose tolerance test in ob/ob mice. The mice were starved for 12 hours and then orally administrated with vehicle or 4524-E7 (5 mg/kg). A bonus of glucose (2 gm/kg) was injected intraperitoneally 1 hour later. Blood glucose was then measured at 30 min intervals (n=13, *: P<0.05; **: P<0.01, two-way ANOVA).
After a 12 h fasting, C57B5L/6J and db/db mice were bled from the tail vein for a baseline measurement with a glucometer (Accu-Chek; Roche Diagnostics, Indianapolis, Ind.). Afterward, animals were orally administered 5 mg/kg compound in 0.5% methylcellulose through a feeding needle. Blood glucose levels were measured at hourly intervals over 5 h.

For test [2], the target named is IR (Mus musculus, UniProt P15208). Briefly: IR phosphorylation and downstream signaling in mouse tissues. In kind it is in vivo. Particulars: C57BL/6J mice, 20 mg/kg oral. As to the method:
as §1
Three-month-old mice were starved for 12 h and then orally administrated with vehicle (0.5% methylcellulose) or DDN (5 mg/kg). Cell lysates were prepared from liver and muscle tissues collected at 1 and 2 h after drug administration and analyzed by immunoprecipitation and immunoblotting. […] Three-month-old mice were starved for 12 h and then orally administrated with vehicle (0.5% methylcellulose) or DDN (5 mg/kg). Cell lysates were prepared from liver and muscle tissues collected at 1 and 2 h after drug administration and analyzed by immunoprecipitation and immunoblotting. (C) Hypoglycemic function of DDN in db/db mice. The animals were starved for 12 h and then orally injected with vehicle (0.5% methylcellulose) or DDN (5 mg/kg). […] Blood glucose was monitored before and after drug administration at 1-hour intervals (*: P<0.05, **: P<0.01, n=5, Two-way ANOVA vs vehicle). (D) DDN improves the glucose tolerance in ob/ob mice. The animals were starved for 12 h and then orally dosed with vehicle (0.5% methylcellulose) or DDN (5 mg/kg). […] A bonus of glucose (2 gm/kg) was injected intraperitoneally 1 hour later. Blood glucose was measured at 30-min intervals (*: P<0.05, **:P<0.01, n=5, Two-way ANOVA vs vehicle control).
as §2
After a 12 h fasting, C57BL/6J mice were orally administrated with 20 mg/kg of compound in 0.5% methylcellulose, and sacrificed at 3 h, 4 h and 5 h following compound administration. Fat tissues were dissected quickly and frozen on dry ice. Fat lysates were prepared and analyzed by Western blotting.

Test [3] concerns the target T2, IR (Homo sapiens, UniProt P06213). Briefly: Cell-based ELISA of IR tyrosine phosphorylation in CHO-IR cells. Also on record: expressed in transfected cells; host or cells: CHO (CHO-IR, gift from Dr. Nicholas Webster, UCSD). Particulars: 5 μM, ELISA. As to the method:
A cell-based screening assay was developed with Chinese hamster ovary cells stably transfected with IR (CHO-IR) by using an ELISA to determine the IR tyrosine phosphorylation. […] Other 1,4-Napthoquinones that are structurally related to 4524-E7 were evaluated.
CHO-IR cells were seeded in a 96-well plate at 15,000 cells per well in […] of 0.1% FBS medium with 0.1% FBS. […] Cells were lysed, and phosphorylated receptors were captured with pY20 immobilized on ELISA plates. Bound receptors were washed, then detected using an anti-IR beta antibody, followed by an horseradish peroxidase-conjugated secondary antibody and colorimetric detection with 3,3′,5,5′-tetramethylbenzidine.
(§3) A cell-based ELISA assay was developed with an IR stably transfected Chinese Hamster Ovary (CHO-IR) cell line. […] The cell lysates were subjected to the sandwich ELISA using immobilized anti-phosphotyrosine antibody and anti-IR antibody.
In general terms: An ELISA detects its analyte on a solid surface through an enzyme-linked reagent.

For test [4], the target named is T1, GST-IRTK. Briefly: Partial proteolysis. Type of test: binding. The following applies: compound 50 μM or ATP-γ-S 5 μM; limited trypsin (or chymotrypsin) digestion. The procedure: 200 ng GST-IRTK was subjected to limited trypsin digestion in the presence or absence of 50 μM compound with 50 mM tris-HCL (pH8.2) and 20 mM CacCl2. The sample was separated on a SDS-polyacrylamide gel and stained by silver.
Several small molecules bind to the intracellular kinase domain of IR (IRTK) and provoke its activation. DDN might also interact with the IRTK to activate IR. To test this possibility, an UV-absorption spectra analysis was performed using recombinant IRTK. While the GST-tagged IRTK (GST-IRTK, a.a. 1011-1382) had no absorption from 200 nm to 800 nm, addition of DDN, but not its structural related analogue naptho[2,3-d]thiazole-4,9-dione-2-[(4-chlorophenyl)amino] […] Partial proteolysis analysis was also performed to confirm the DDN/IRTK interaction. Recombinant GST-tagged IRTK was incubated with either DMSO or DDN, followed by limited trypsin digestions. In DMSO treatment, GST-IRTK was digested into several smaller fragments of various molecular weights. […] Whereas a band of ˜37 kDa presented strongly in the ATP-γ-S incubated IRTK, a band of ˜30 kDa was found in the control samples but attenuated in the ATP-γ-S-treated sample.
To evaluate if 4524-E7 directly binds to the IR kinase domain, a partial proteolysis assay was performed with recombinant IRTK domain using trypsin or chymotrypsin, which was used before to characterize the interaction between IR and its small molecular ligand DAQ B1. Recombinant GST-tagged IRTK with either DMSO, 50 μM 4524-E7 or ATP-γ-S, were incubated and followed by limited trypsin or chymotrypsin digestion. Under DMSO treatment, GST-IRTK was quickly digested by both trypsin and chymotrypsin into several small fragments with various molecular weights (FIG. 10B). […] To test whether 4524-E7 selectively elevates IR kinase activities, an in vitro IR, IGFR, and EGFR kinase assays were performed using histone as the substrate.

The target in test [5] is T2, IR. Briefly: Immunoblotting of IR phosphorylation and downstream signaling in CHO-IR cells. In kind it is cell-based. On the set-up: expressed in transfected cells; host or cells: CHO (CHO-IR, gift from Dr. Nicholas Webster, UCSD). The following applies: 5 μM, 30 min. The procedure:
The cell lysates were analyzed by immunoblotting with anti-phospho-IR antibodies, or immunoprecipitated by PY20 and analyzed using anti-IR and anti-IRS-1, respectively. […] The cell lysates were analyzed by immunoblotting with anti-pIGF-1R and anti-pEGFR. […]
as §3
(In general: Immunoblotting shows a protein as a band on a membrane.)

T2 sequence (P06213 763-1382 limits assumed): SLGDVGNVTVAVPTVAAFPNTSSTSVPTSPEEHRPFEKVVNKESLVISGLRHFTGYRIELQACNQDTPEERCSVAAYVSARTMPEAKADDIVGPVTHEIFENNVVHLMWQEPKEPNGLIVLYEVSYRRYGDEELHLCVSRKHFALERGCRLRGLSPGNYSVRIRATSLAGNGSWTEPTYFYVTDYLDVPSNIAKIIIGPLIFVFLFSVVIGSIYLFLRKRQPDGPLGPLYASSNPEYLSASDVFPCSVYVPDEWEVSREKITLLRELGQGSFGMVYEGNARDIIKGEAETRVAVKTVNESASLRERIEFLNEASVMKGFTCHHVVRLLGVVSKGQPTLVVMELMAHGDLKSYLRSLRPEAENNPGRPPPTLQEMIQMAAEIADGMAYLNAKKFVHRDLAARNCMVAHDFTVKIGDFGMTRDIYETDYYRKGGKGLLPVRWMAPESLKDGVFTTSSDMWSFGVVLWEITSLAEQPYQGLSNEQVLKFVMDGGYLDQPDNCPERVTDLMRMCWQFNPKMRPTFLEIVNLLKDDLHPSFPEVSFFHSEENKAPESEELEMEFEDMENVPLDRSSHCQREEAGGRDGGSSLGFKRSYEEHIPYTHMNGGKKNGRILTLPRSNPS
T2 sequence (P06213 28-758 limits assumed): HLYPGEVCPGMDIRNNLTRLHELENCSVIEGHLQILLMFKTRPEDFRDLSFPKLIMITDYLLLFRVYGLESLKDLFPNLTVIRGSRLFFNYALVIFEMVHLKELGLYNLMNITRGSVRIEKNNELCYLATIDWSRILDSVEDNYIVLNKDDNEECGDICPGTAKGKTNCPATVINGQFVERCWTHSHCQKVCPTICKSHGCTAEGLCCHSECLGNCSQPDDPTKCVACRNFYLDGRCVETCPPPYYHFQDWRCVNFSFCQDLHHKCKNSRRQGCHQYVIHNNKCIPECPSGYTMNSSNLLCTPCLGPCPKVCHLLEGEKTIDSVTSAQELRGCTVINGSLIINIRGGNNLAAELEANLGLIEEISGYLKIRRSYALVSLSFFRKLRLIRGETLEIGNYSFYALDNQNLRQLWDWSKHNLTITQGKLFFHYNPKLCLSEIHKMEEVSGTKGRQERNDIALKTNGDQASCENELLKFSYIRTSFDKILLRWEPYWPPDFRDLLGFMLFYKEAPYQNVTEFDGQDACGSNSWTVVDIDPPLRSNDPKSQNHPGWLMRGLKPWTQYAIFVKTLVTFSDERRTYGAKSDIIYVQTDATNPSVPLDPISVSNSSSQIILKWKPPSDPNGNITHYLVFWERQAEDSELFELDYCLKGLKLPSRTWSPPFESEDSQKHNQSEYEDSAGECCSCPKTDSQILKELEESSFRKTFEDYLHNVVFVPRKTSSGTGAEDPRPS
T1 sequence (P06213 1011-1382): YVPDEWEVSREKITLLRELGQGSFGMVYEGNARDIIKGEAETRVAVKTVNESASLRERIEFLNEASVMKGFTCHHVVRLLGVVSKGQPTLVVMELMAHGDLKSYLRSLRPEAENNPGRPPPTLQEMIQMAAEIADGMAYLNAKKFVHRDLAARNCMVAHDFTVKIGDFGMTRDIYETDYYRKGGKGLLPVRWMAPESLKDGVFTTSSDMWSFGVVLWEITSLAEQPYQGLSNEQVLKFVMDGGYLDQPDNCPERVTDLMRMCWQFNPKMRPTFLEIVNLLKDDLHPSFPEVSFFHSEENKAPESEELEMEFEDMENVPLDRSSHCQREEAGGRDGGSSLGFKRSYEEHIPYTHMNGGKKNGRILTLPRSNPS
IR (Mus musculus, UniProt P15208), sequence (P15208 28-1372): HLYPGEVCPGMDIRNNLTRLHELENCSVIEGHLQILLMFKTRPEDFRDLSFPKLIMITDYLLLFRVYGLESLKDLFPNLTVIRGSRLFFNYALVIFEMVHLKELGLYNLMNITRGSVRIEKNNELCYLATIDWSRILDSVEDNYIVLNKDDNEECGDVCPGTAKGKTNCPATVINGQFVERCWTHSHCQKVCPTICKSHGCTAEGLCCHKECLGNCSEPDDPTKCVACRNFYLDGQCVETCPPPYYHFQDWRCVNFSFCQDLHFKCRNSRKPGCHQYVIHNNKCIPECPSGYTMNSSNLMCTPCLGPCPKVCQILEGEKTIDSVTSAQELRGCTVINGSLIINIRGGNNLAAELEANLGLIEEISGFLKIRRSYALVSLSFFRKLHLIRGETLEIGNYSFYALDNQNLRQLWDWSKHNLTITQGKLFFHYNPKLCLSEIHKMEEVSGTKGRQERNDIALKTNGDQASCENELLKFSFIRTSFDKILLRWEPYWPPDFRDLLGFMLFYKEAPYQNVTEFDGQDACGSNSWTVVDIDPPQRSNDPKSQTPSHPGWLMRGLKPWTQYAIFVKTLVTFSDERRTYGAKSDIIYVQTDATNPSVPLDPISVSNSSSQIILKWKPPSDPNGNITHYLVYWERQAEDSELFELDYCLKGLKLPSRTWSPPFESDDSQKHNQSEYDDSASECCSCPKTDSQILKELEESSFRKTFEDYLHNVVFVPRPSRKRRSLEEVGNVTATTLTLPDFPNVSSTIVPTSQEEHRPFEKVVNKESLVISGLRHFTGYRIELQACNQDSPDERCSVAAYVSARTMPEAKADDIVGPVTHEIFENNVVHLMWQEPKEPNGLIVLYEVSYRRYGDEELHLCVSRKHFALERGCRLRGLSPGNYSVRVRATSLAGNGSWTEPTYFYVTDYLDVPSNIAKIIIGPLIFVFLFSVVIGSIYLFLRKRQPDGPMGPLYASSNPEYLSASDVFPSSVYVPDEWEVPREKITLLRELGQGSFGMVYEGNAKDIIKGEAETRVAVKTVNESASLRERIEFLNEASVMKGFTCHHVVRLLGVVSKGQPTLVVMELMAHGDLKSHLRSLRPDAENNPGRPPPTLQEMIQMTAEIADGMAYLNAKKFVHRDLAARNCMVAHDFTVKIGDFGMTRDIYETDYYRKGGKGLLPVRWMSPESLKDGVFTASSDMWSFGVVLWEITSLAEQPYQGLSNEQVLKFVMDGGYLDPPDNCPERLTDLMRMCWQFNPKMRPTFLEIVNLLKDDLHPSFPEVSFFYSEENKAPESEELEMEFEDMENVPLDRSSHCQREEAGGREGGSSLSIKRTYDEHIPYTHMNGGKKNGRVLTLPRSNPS

`NC1=CC(=O)c2ccccc2C1=O` [2NH2-NQ, 2-amino-1,4-naphthoquinone, reference compound]: the “IRTK kinase activity (histone H2B phosphorylation)” value at GST-IRTK [1] was “inactive analogue”. Further, the “blood glucose as compared to vehicle control” value in the test with C57BL/6J mice was “had no effect”. Moreover, the “IR and IRS-1 tyrosine phosphorylation in liver and muscle” value at IR [2] is given as “Neither IR nor IRS phosphorylations were increased”. Further, the IR phosphorylation result at IR [3] (15 min, CHO-IR cells) is given as “not active”.

`Nc1ncnc2c1ncn2[C@@H]1O[C@H](COP(=O)(O)OP(=O)(O)OP(O)(O)=S)[C@@H](O)[C@H]1O` [ATP-γ-S, reference compound]: the “protection of IRTK from proteolysis” value on GST-IRTK [4] is recorded as “altered the proteolysis pattern; also recorded: digestion pattern was altered”.

As for `O=C1c2ccccc2C(=O)c2sc(Nc3ccc(Cl)cc3Cl)nc21` [compound 7, 2-((2,4-dichlorophenyl)amino)naphtho[2,3-d]thiazole-4,9-dione], at IR [3] (30 min, compared to the parental compound), the “IR phosphorylation, 4524-E7 derivatives” value is reported as “improved activity”. Also, on IR [5], the IR tyrosine phosphorylation entry is listed as “triggered IR tyrosine phosphorylation”.
